The record followed here is patent US20130259835A1, “BIFIDOBACTERIUM ADOLESCENTIS SPM0212 HAVING ANTIVIRAL ACTIVITY FOR HEPATITIS B VIRUS, AND PHARMACEUTICAL COMPOSITION FOR PREVENTING AND TREATING HEPATITIS B COMPRISING THEREOF” (SAHMYOOK UNIVERSITY INDUSTRY-ACADEMIC COOPERATION, priority 2011, published 2013).

Common to all, as to assay: Antibiotics sensitivity, agar dilution MIC
Holding throughout (assay type): cell-based
(Agar dilution tests growth on a series of plates holding different concentrations.)

The test system of assay [1] is Bifidobacterium adolescentis KCTC3352. The following applies: strain KCTC3352; Table 5. As for the experimental part:
(§1) Antibiotics sensitivity test was performed for comparative analysis of phenotypes of the lactobacillus strain separated in Example 1 and standard strains purchased from KCTC. In order to find out the minimum inhibitory concentrations (MICs) of 18 kinds of antibiotics (ampicillin, mupirocin, amoxicillin/clavulanic acid, oxacillin, cefonicid, cefazolin, ceftazidime, cefotaxime, ceftriaxone, tigecyclin, streptomycin, vancomycin, teicoplanin, daptomycin, linezolid, clindamycin, quinupristin/dalfopristin and tobramycin), agar dilution method was performed according to the Clinical and Laboratory Standards Institute (CLSI, 2003), and the results were listed in Tables 4 and 5.

The subject of assay [2] is Bifidobacterium adolescentis SPM0212. The following applies: strain SPM0212; Table 5. As for the experimental part: as §1
For assay [3], the system named is Bifidobacterium adolescentis SPM0214. The following applies: strain SPM0214; Table 5. As for the experimental part: as §1
In assay [4] the test system is Bifidobacterium adolescentis SPM0308. The following applies: strain SPM0308; Table 5. As for the experimental part:
as §1

In assay [5] the test system is Bifidobacterium adolescentis SPM1005. The following applies: strain SPM1005; Table 5. As for the experimental part: as §1
The subject of assay [6] is Bifidobacterium adolescentis SPM1307-A. The following applies: strain SPM1307-A; Table 5. Here is the method: as §1
Assay [7] deals with Bifidobacterium adolescentis SPM1601. The following applies: strain SPM1601; Table 5. Here is the method: as §1
Assay [8] relates to Bifidobacterium adolescentis SPM1604. The following applies: strain SPM1604; Table 5. Here is the method: as §1
The subject of assay [9] is Bifidobacterium adolescentis SPM1605. The following applies: strain SPM1605; Table 5. Here is the method: as §1
The test system of assay [10] is Bifidobacterium adolescentis SPM1606. The following applies: strain SPM1606; Table 5. Here is the method: as §1
Assay [11] deals with Bifidobacterium adolescentis SPM1608. The following applies: strain SPM1608; Table 5. As for the experimental part: as §1
The test system of assay [12] is Bifidobacterium longum KCTC3128. The following applies: strain KCTC3128; Table 5. As for the experimental part: as §1
Assay [13] has as its system Bifidobacterium longum SPM1205. The following applies: strain SPM1205; Table 5. As for the experimental part:
as §1

For assay [14], the system named is Bifidobacterium longum SPM1206. The following applies: strain SPM1206; Table 5. Here is the method:
as §1

The subject of assay [15] is Bifidobacterium pseudocatenulatum KCTC3223. The following applies: strain KCTC3223; Table 5. Here is the method: as §1
The test system of assay [16] is Bifidobacterium pseudocatenulatum SPM1204. The following applies: strain SPM1204; Table 5. As for the experimental part:
as §1

The subject of assay [17] is Bifidobacterium pseudocatenulatum SPM1309. The following applies: strain SPM1309; Table 5. As for the experimental part: as §1

As to `CCC[C@@H]1C[C@@H](C(=O)N[C@@H]([C@H]2O[C@H](SC)[C@H](O)[C@@H](O)[C@H]2O)[C@H](C)Cl)N(C)C1` [CLI, clindamycin], the “Minimum inhibitory concentrations (MICs)” value in assay [1] is recorded as 4 μl/Ml; in assay [2], 4 μl/Ml; in [3] it was 32 μl/Ml; in assay [4] it was 32 μl/Ml; in assay [5] it was 32 μl/Ml; in [6], 4 μl/Ml. In addition, the “Minimum inhibitory concentrations (MICs)” value in assay [7] came to 16 μl/Ml; in assay [8], 4 μl/Ml; in [9], 4 μl/Ml; in assay [10], 4 μl/Ml; in [11] it was 8 μl/Ml; in [12], 4 μl/Ml. The “Minimum inhibitory concentrations (MICs)” value in [13] is given as 4 μl/Ml; in [14], 8 μl/Ml; in assay [15], 8 μl/Ml; in assay [16] it was over 128 μl/Ml; in [17], 8 μl/Ml.
For `CCCCCCCCCC(=O)N[C@@H](Cc1c[nH]c2ccccc12)C(=O)N[C@H](CC(N)=O)C(=O)N[C@@H](CC(=O)O)C(=O)N[C@@H]1C(=O)NCC(=O)N[C@@H](CCCN)C(=O)N[C@@H](CC(=O)O)C(=O)N[C@H](C)C(=O)N[C@@H](CC(=O)O)C(=O)NCC(=O)N[C@H](CO)C(=O)N[C@@H]([C@H](C)CC(=O)O)C(=O)N[C@@H](CC(=O)c2ccccc2N)C(=O)O[C@@H]1C` [DAP, daptomycin], the “Minimum inhibitory concentrations (MICs)” value was determined as 16 μl/Ml in [1]; 4 μl/Ml in assay [2]; 2 μl/Ml in [3]; 0.25 μl/Ml in assay [4]; 1 μl/Ml in assay [5]; 8 μl/Ml in assay [6]. For the same molecule, the “Minimum inhibitory concentrations (MICs)” value in assay [7] is 4 μl/Ml; in assay [8] it was 4 μl/Ml; in [9] it was 4 μl/Ml; in [10] it was 0.12 μl/Ml; in assay [11] it was 8 μl/Ml; in [12], 16 μl/Ml. Moreover, the “Minimum inhibitory concentrations (MICs)” value in [13] stood at 2 μl/Ml; in assay [14], 4 μl/Ml; in assay [15], 16 μl/Ml; in [16], 2 μl/Ml; in assay [17], 4 μl/Ml.
Turning to `CC(=O)NC[C@H]1CN(c2ccc(N3CCOCC3)c(F)c2)C(=O)O1` [LNZ, linezolid], the “Minimum inhibitory concentrations (MICs)” value in [1] was 8 μl/Ml; in assay [2], 8 μl/Ml; in assay [3], 0.25 μl/Ml; in assay [4], 2 μl/Ml; in assay [5], 4 μl/Ml; in assay [6], 8 μl/Ml. For the same molecule, the “Minimum inhibitory concentrations (MICs)” value worked out at 8 μl/Ml in assay [7]; 1 μl/Ml in [8]; 4 μl/Ml in [9]; 2 μl/Ml in assay [10]; 8 μl/Ml in [11]; 8 μl/Ml in [12]. Besides, the “Minimum inhibitory concentrations (MICs)” value in assay [13] is 2 μl/Ml; in [14], 1 μl/Ml; in assay [15], 8 μl/Ml; in assay [16], 8 μl/Ml; in [17] it was 2 μl/Ml.
On to `[H]/N=C(/N)N[C@H]1[C@H](O)[C@@H](O)[C@H](O[C@@H]2O[C@@H](C)[C@](O)(C=O)[C@H]2O[C@@H]2O[C@@H](CO)[C@H](O)[C@@H](O)[C@@H]2NC)[C@@H](N/C(N)=N\[H])[C@@H]1O` [STR, streptomycin], for which the “Minimum inhibitory concentrations (MICs)” value is 128 μl/Ml in assay [1]; 128 μl/Ml in assay [2]; 32 μl/Ml in [3]; 32 μl/Ml in assay [4]; 32 μl/Ml in [5]; 64 μl/Ml in assay [6]. For the same molecule, the “Minimum inhibitory concentrations (MICs)” value is 64 μl/Ml in assay [7]; “≦0.06 μl/Ml” in assay [8]; 32 μl/Ml in [9]; 0.25 μl/Ml in assay [10]; 32 μl/Ml in assay [11]; 128 μl/Ml in assay [12]. Also, the “Minimum inhibitory concentrations (MICs)” value is reported as 8 μl/Ml in [13]; 8 μl/Ml in assay [14]; 128 μl/Ml in assay [15]; 128 μl/Ml in [16]; 32 μl/Ml in assay [17].
Take `CN(C)c1cc(NC(=O)CNC(C)(C)C)c(O)c2c1C[C@H]1C[C@H]3[C@H](N(C)C)C(O)=C(C(N)=O)C(=O)[C@@]3(O)C(O)=C1C2=O` [TIG, tigecyclin]: the “Minimum inhibitory concentrations (MICs)” value was 0.5 μl/Ml in [1]; “≦0.06 μl/Ml” in assay [2]; 0.25 μl/Ml in assay [3]; “≦0.06 μl/Ml” in [4]; 0.5 μl/Ml in [5]; 0.25 μl/Ml in assay [6]. The “Minimum inhibitory concentrations (MICs)” value was 0.25 μl/Ml in assay [7]; “≦0.06 μl/Ml” in assay [8]; 0.5 μl/Ml in assay [9]; 0.12 μl/Ml in assay [10]; “≦0.06 μl/Ml” in assay [11]; 0.5 μl/Ml in assay [12]. Moreover, the “Minimum inhibitory concentrations (MICs)” value in assay [13] was “≦0.06 μl/Ml”; in [14], 0.12 μl/Ml; in assay [15] it was 0.5 μl/Ml; in [16], 0.5 μl/Ml; in assay [17], 0.25 μl/Ml.
Consider `NC[C@H]1O[C@H](O[C@H]2[C@H](O)[C@@H](O[C@H]3O[C@H](CO)[C@@H](O)[C@H](N)[C@H]3O)[C@H](N)C[C@@H]2N)[C@H](N)C[C@@H]1O` [TOB, tobramycin], for which the “Minimum inhibitory concentrations (MICs)” value is reported as over 128 μl/Ml in assay [1]; over 128 μl/Ml in [2]; 32 μl/Ml in assay [3]; 32 μl/Ml in assay [4]; 32 μl/Ml in [5]; 64 μl/Ml in assay [6]. Moreover, the “Minimum inhibitory concentrations (MICs)” value in [7] was 32 μl/Ml; in assay [8], 16 μl/Ml; in assay [9], 16 μl/Ml; in assay [10], 16 μl/Ml; in [11], 128 μl/Ml; in assay [12] it was over 128 μl/Ml. The “Minimum inhibitory concentrations (MICs)” value in assay [13] is 4 μl/Ml; in assay [14] it was 32 μl/Ml; in assay [15], over 128 μl/Ml; in assay [16], 128 μl/Ml; in assay [17], over 128 μl/Ml.
